According to US8809232B2, “Herbicidal compositions comprising 4-amino-3-chloro-5-fluoro-6-(4-chloro-2-fluoro-3-methoxyphenyl) pyridine-2-carboxylic acid or a derivative thereof and halosulfuron, pyrazosulfuron and esprocarb” (Dow Agrosciences LLC, priority 2012, dated 2014):
“And” between values parts separate entries of the source, which are not always exact repeats. Equal entries are not always repeated.

Experiments:
[1] = system: CYPIR; experiment: Post-emergence foliar-applied herbicidal mixtures, greenhouse, direct seeded rice weeds; format: in vivo, Cyperus iria L.
Source text: (§1) Seeds or nutlets of the desired test plant species were planted in a soil matrix prepared by mixing a loam or sandy loam soil (e.g., 28.6 percent silt, 18.8 percent clay, and 52.6 percent sand, with a pH of about 5.8 and an organic matter content of about 1.8 percent) and calcareous grit in an 80 to 20 ratio. The soil matrix was contained in plastic pots with a volume of 1 quart and a surface area of 83.6 square centimeters (cm^2). When required to ensure good germination and healthy plants, a fungicide treatment and/or other chemical or physical treatment was applied. The plants were grown for 8-22 days in a greenhouse with an approximate 14 hr photoperiod which was maintained at about 29° C. during the day and 26° C. during the night. Nutrients (Peters Excel® 15-5-15 5-Ca 2-Mg and iron chelate) were applied in the irrigation solution as needed and water was added on a regular basis. Supplemental lighting was provided with overhead metal halide 1000-Watt lamps as necessary. The plants were employed for testing when they reached the first through fourth true leaf stage.
(§2) Treatments consisted of the acid or esters of 4-amino-3-chloro-5-fluoro-6-(4-chloro-2-fluoro-3-methoxy-phenyl)pyridine-2-carboxylic acid (Compound A), each formulated as an SC (suspension concentrate), and various herbicidal components alone and in combination. Forms of compound A were applied on an acid equivalent basis.
(§3) Other herbicidal components were applied on an active ingredient basis and included the acetolactate synthase (ALS)-inhibiting herbicides halosulfuron-methyl formulated as Permit® 75 WDG, pyrazosulfuron-ethyl formulated as Agreen® WG or Sirius® G, and the VLCFA inhibiting herbicide esprocarb (technical grade material).
(§4) Treatment requirements were calculated based upon the rates being tested, the concentration of active ingredient or acid equivalent in the formulation, and a 12 mL application volume at a rate of 187 L/ha.
(§5) For treatments comprised of formulated compounds, measured amounts of compounds were placed individually in 25 mL glass vials and diluted in a volume of 1.25% (v/v) Agri-Dex® crop oil concentrated to obtain 12× stock solutions. […]
(§6) For treatments comprised of formulated and technical compounds, weighed amounts of the technical materials were placed individually in 25 mL glass vials and dissolved in a volume of 97:3 v/v acetone/DMSO to obtain 12× stock solutions, and measured amounts of the formulated compounds were placed individually in 25 mL glass vials and diluted in a volume of 1.5% (v/v) crop oil concentrate or water to obtain 12× stock solutions. […]

[2] = system: DIGSA; experiment: as above; format: in vivo, Digitaria sanguinalis (L.) Scop.
Source text: as §1, §2, §3, §4
(§7) For treatments comprised of formulated compounds, measured amounts of compounds were placed individually in 25 mL glass vials and diluted in a volume of 1.25% (v/v) Agri-Dex® crop oil concentrated to obtain 12× stock solutions. […] Application solutions were prepared by adding an appropriate amount of each stock solution (e.g., 1 mL) and diluted to the appropriate final concentrations with the addition of 10 mL of an aqueous mixture of 1.25% (v/v) crop oil concentrate so that the final spray solutions contained 1.25+/−0.05% (v/v) crop oil concentrate.
(§8) For treatments comprised of technical compounds, weighed amounts can be placed individually in 25 mL glass vials and dissolved in a volume of 97:3 v/v acetone/DMSO to obtain 12× stock solutions. […] Application solutions can be prepared by adding an appropriate amount of each stock solution (e.g., 1 mL) and diluted to the appropriate final concentrations with the addition of 10 mL of an aqueous mixture of 1.5% (v/v) crop oil concentrate so that the final spray solutions contain 1.25% (v/v) crop oil concentrate. When technical materials are used, the concentrated stock solutions can be added to the spray solutions so that the final acetone and DMSO concentrations of the application solutions are 16.2% and 0.5%, respectively.
(§9) For treatments comprised of formulated and technical compounds, weighed amounts of the technical materials were placed individually in 25 mL glass vials and dissolved in a volume of 97:3 v/v acetone/DMSO to obtain 12× stock solutions, and measured amounts of the formulated compounds were placed individually in 25 mL glass vials and diluted in a volume of 1.5% (v/v) crop oil concentrate or water to obtain 12× stock solutions. […] Application solutions were prepared by adding an appropriate amount of each stock solution (e.g., 1 mL) and diluted to the appropriate final concentrations with the addition of an appropriate amount of an aqueous mixture of 1.5% (v/v) crop oil concentrate so that the final spray solutions contained 1.25% (v/v) crop oil concentrate. […]

[3] = system: LEFCH; experiment: In-water applied herbicidal mixtures, greenhouse, transplanted paddy rice weeds; format: in vivo, Leptochloa chinensis (L.) Nees; conditions: 4.38 g ae/ha
Description: Weed seeds or nutlets of the desired test plant species were planted in puddled soil (mud) prepared by mixing a shredded, non-sterilized mineral soil (50.5 percent silt, 25.5 percent clay, and 24 percent sand, with a pH of about 7.6 and an organic matter content of about 2.9 percent) and water at a 1:1 volumetric ratio. The prepared mud was dispensed in 365 mL aliquots into 16-ounce (oz.) non-perforated plastic pots with a surface area of 86.59 square centimeters (cm^2) leaving a headspace of 3 centimeters (cm) in each pot Mud was allowed to dry overnight prior to planting or transplanting. Rice seeds were planted in Sun Gro MetroMix® 306 planting mixture, which typically has a pH of 6.0 to 6.8 and an organic matter content of about 30 percent, in plastic plug trays. Seedlings at the second or third leaf stage of growth were transplanted into 840 mL of mud contained in 32-oz. non-perforated plastic pots with a surface area of 86.59 cm^2 4 days prior to herbicide application. The paddy was created by filling the headspace of the pots with 2.5 to 3 cm of water. When required to ensure good germination and healthy plants, a fungicide treatment and/or other chemical or physical treatment was applied. The plants were grown for 4-22 days in a greenhouse with an approximate 14 hr photoperiod which was maintained at about 29′C during the day and 26° C. during the night. Nutrients were added as Osmocote® (19:6:12, N:P:K^+ minor nutrients) at 2 g per 16-oz. pot and 4 g per 32-oz. pot. […]
(§10) Treatment requirements for each compound or herbicidal component were calculated based upon the rates being tested, the concentration of active ingredient or acid equivalent in the formulation, an application volume of 2 mL per component per pot, and an application area of 86.59 cm^2 per pot.
For formulated compounds, a measured amount was placed in an individual 100 or 200 mL glass vial and was dissolved in a volume of 1.25% (v/v) Agri-Dex® crop oil concentrate to obtain application solutions. […]

[4] = system: SCPMA; experiment: as above; format: in vivo
Description: (§11) Weed seeds or nutlets of the desired test plant species were planted in puddled soil (mud) prepared by mixing a shredded, non-sterilized mineral soil (50.5 percent silt, 25.5 percent clay, and 24 percent sand, with a pH of about 7.6 and an organic matter content of about 2.9 percent) and water at a 1:1 volumetric ratio. The prepared mud was dispensed in 365 mL aliquots into 16-ounce (oz.) non-perforated plastic pots with a surface area of 86.59 square centimeters (cm^2) leaving a headspace of 3 centimeters (cm) in each pot Mud was allowed to dry overnight prior to planting or transplanting. Rice seeds were planted in Sun Gro MetroMix® 306 planting mixture, which typically has a pH of 6.0 to 6.8 and an organic matter content of about 30 percent, in plastic plug trays. Seedlings at the second or third leaf stage of growth were transplanted into 840 mL of mud contained in 32-oz. non-perforated plastic pots with a surface area of 86.59 cm^2 4 days prior to herbicide application. The paddy was created by filling the headspace of the pots with 2.5 to 3 cm of water. When required to ensure good germination and healthy plants, a fungicide treatment and/or other chemical or physical treatment was applied. The plants were grown for 4-22 days in a greenhouse with an approximate 14 hr photoperiod which was maintained at about 29′C during the day and 26° C. during the night. Nutrients were added as Osmocote® (19:6:12, N:P:K^+ minor nutrients) at 2 g per 16-oz. pot and 4 g per 32-oz. pot. Water was added on a regular basis to maintain the paddy flood, and supplemental lighting was provided with overhead metal halide 1000-Watt lamps as necessary. The plants were employed for testing when they reached the first through fourth true leaf stage.
as §2, with “(compound A)” for “(Compound A),”, “concentrate)” for “concentrate),”
(§12) Other herbicidal components were applied on an active ingredient basis and included acetolactate synthase (ALS)-inhibiting herbicides formulated as Permit® 75 WDG, pyrazosulfuron-ethyl formulated as Agreen® WG or Sirius® G, and VLCFA inhibiting herbicide esprocarb (technical grade material).
as §10
(§13) For formulated compounds, a measured amount was placed in an individual 100 or 200 mL glass vial and was dissolved in a volume of 1.25% (v/v) Agri-Dex® crop oil concentrate to obtain application solutions.
(§14) For technical grade compounds, a weighed amount was placed in an individual 100 to 200 mL glass vial and was dissolved in a volume of acetone to obtain concentrated stock solutions. […] The concentrated stock solutions obtained were diluted with an equivalent volume of an aqueous mixture containing 2.5% (v/v) crop oil concentrate so that the final application solutions contained 1.25% (v/v) crop oil concentrate.
(§15) Applications were made by injecting with a pipetter appropriate amounts of the application solutions, individually and sequentially, into the aqueous layer of the paddy. Control plants were treated in the same manner with the solvent blank. Applications were made so that all treated plant material received the same concentrations of acetone and crop oil concentrate.
(§16) The treated plants and control plants were placed in a greenhouse as described above and water was added as needed to maintain a paddy flood. […]

[5] = system: BRAPP; experiment: Post-emergence foliar-applied herbicidal mixtures, greenhouse, direct seeded rice weeds; format: in vivo
Source text: as §1, §2, §3, §4, §7, §8, §9

[6] = system: FIMMI; experiment: In-water applied herbicidal mixtures, greenhouse, transplanted paddy rice weeds; format: in vivo, Fimbristylis miliacea (L.) Vahl; conditions: 4.38 g ae/ha
Description: as §11
as §2, with “(compound A)” for “(Compound A),”, “concentrate)” for “concentrate),”
as §12, §10, §13, §14
Applications were made by injecting with a pipetter appropriate amounts of the application solutions, individually and sequentially, into the aqueous layer of the paddy. […]

[7] = system: LEFCH; experiment: Post-emergence foliar-applied herbicidal mixtures, greenhouse, direct seeded rice weeds; format: in vivo, Leptochloa chinensis (L.) Nees
Source text: as §1, §2, §3, §4, §7, §8, §9

[8] = system: ECHOR; experiment: In-water applied herbicidal mixtures, greenhouse, transplanted paddy rice weeds; format: in vivo, Echinochloa oryzoides (Ard.) Fritsch
Description: as §11
as §2, with “(compound A)” for “(Compound A),”, “concentrate)” for “concentrate),”
as §12, §10, §13, §14, §15, §16

[9] = system: SCPJU; experiment: Post-emergence foliar-applied herbicidal mixtures, greenhouse, direct seeded rice weeds; format: in vivo, Schoenoplectus juncoides (Roxb.) Palla; conditions: 8.75 g ae/ha
Source text: as §1, with “stage. […]” for “stage.”
as §4, §5, §6

[10] = system: CYPRO; experiment: In-water applied herbicidal mixtures, greenhouse, transplanted paddy rice weeds; format: in vivo, Cyperus rotundus L.
Description: as §11
as §2, with “(compound A)” for “(Compound A),”, “concentrate)” for “concentrate),”
as §12, §10, §13, §14, §15, §16

In the case of `COc1c(Cl)ccc(-c2nc(C(=O)OCc3ccccc3)c(Cl)c(N)c2F)c1F` [Compound A Benzyl Ester], the “Visual Weed Control (%) - 22 DAA CYPIR Obs” value ([1]; 4.38 g ae/ha) is reported as 25%, the “Visual Weed Control (%) - 22 DAA CYPIR Obs” value ([1]; 8.75 g ae/ha) is reported as 50% and the “Visual Weed Control (%) - 21 DAA DIGSA Obs” value ([2]; 17.5 g ae/ha) is reported as 23%. For the same molecule, the “Visual Weed Control (%) - 21 DAA DIGSA Obs” value ([2]; 35 g ae/ha) was 38%, the “Visual Weed Control (%) - 22 DAA LEFCH Obs” value [3] was 0% and the “Visual Weed Control (%) - 22 DAA SCPMA Obs” value ([4]; 4.38 g ae/ha) was 0%. For the same molecule, the “Visual Weed Control (%) - 22 DAA SCPMA Obs” value ([4]; 8.75 g ae/ha) was 0%, the “Visual Weed Control (%) - 22 DAA SCPMA Obs” value ([4]; 17.5 g ae/ha) was 0% and the “Visual Weed Control (%) - 20 DAA SCPMA Obs” value ([4]; 70 g ae/ha) was 0%. For the same molecule, the “Visual Weed Control (%) - 20 DAA BRAPP Obs” value ([5]; 4.38 g ae/ha) was 40%, the “Visual Weed Control (%) - 21 DAA BRAPP Obs” value ([5]; 4.38 g ae/ha) was 50% and the “Visual Weed Control (%) - 20 DAA BRAPP Obs” value ([5]; 8.75 g ae/ha) was 70%. For the same molecule, the “Visual Weed Control (%) - 21 DAA FIMMI Obs” value [6] was 20%, the “Visual Weed Control (%) - 20 DAA LEFCH Obs” value ([7]; 4.38 g ae/ha) was 0% and the “Visual Weed Control (%) - 20 DAA LEFCH Obs” value ([7]; 8.75 g ae/ha) was 20%. The “Visual Weed Control (%) - 20 DAA LEFCH Obs” value ([7]; 17.5 g ae/ha) was 40%, the “Visual Weed Control (%) - 21 DAA ECHOR Obs” value ([8]; 4.38 g ae/ha) was 0% and the “Visual Weed Control (%) - 21 DAA ECHOR Obs” value ([8]; 8.75 g ae/ha) was 10%. The “Visual Weed Control (%) - 20 DAA ECHOR Obs” value ([8]; 35 g ae/ha) was 73%, the “Visual Weed Control (%) - 22 DAA SCPJU Obs” value [9] was 80% and the “Visual Weed Control (%) - 21 DAA CYPRO Obs” value ([10]; 4.38 g ae/ha) was 20% and 30%. For the same molecule, the “Visual Weed Control (%) - 21 DAA CYPRO Obs” value ([10]; 8.75 g ae/ha) was 65% and 60%.
